Laboratory results as given in US7521444B2, “Compounds for the treatment of hepatitis C” (Bristol-Myers Squibb Company, priority 2007, dated 2009).

Legend:
[1] = tested on: HCV replicon cells; experiment: HCV replicon FRET / luciferase assay; assay type: cell-based; settings: Hepatitis C virus, 50% reduction in FRET or luciferase activity
Description: FRET Assay Preparation. The HCV FRET screening assay was performed in 96-well cell culture plates. The FRET peptide (Anaspec, Inc.) (Taliani et al., Anal. Biochem. 1996, 240, 60-67) contains a fluorescence donor, EDANS, near one end of the peptide and an acceptor, DABCYL, near the other end. The fluorescence of the peptide is quenched by […] resonance energy transfer (RET) between the donor and the acceptor, but as the NS3 protease cleaves the peptide the products are released from RET quenching and the fluorescence of the donor becomes apparent. The assay reagent was made as follows: 5× cell Luciferase cell culture lysis reagent from Promega (#E153A) diluted to 1× with dH2O, NaCl added to 150 mM final, the FRET peptide diluted to 20 μM final from a 2 mM stock.
To prepare plates, HCV replicon cells, with or without a Renilla luciferase reporter gene, were trypsinized and plated in a 96-well plate with titrated test compounds added in columns 3 through 12; columns 1 and 2 contained a control compound (HCV control inhibitor), and the bottom row contained cells with DMSO only. The plates were then placed in a CO2 incubator at 37° C.
Assays. Subsequent to addition of the test compounds described above (FRET Assay Preparation), at various times the plate was removed and Alamar blue solution (Trek Diagnostics, #00-100) was added to measure cellular toxicity. After reading in a Cytoflour 4000 instrument (PE Biosystems), plates were rinsed with PBS and then used for FRET assay by the addition of 30 ul of the FRET peptide assay reagent described above (FRET Assay Preparation) per well. The plate was then placed into the Cytoflour 4000 instrument which had been set to 340 excite/490 emission, automatic mode for up to 20 cycles and the plate read in a kinetic mode. Typically, the signal to noise using an endpoint analysis after the reads was at least three-fold. Alternatively, after Alamar blue reading, plates were rinsed with PBS, then used for luciferase assay using the Promega Dual-Glo Luciferase Assay System or the Promega EnduRen Live Cell Substrate assay.
Compound analysis was performed by quantification of the relative HCV replicon inhibition and the relative cytotoxicity values. To calculate cytoxicity values, the average Alamar Blue fluorescence signals from the control wells were set as 100% non-toxic. The individual signals in each of the compound test wells were then divided by the average control signal and multiplied by 100% to determine […]. To calculate the HCV replicon inhibition values, an average background value was obtained from the two wells containing the highest amount of HCV control inhibitor at the end of the assay period. These numbers were similar to those obtained from naïve Huh-7 cells. The background numbers were then subtracted from the average signal obtained from the control wells and this number was used as 100% activity. The individual signals in each of the compound test wells were then divided by the averaged control values after background subtraction and multiplied by 100% to determine percent activity. EC50 values were calculated as the concentration which caused a 50% reduction in FRET or luciferase activity. The two numbers generated for the compound plate, percent cytoxicity and percent activity, were used to determine compounds of interest for further analysis.

[2] = target: T1, HCV NS5B (Hepatitis C virus genotype 1b, UniProt Q9WMX2); experiment: HCV NS5B RdRp enzyme assay (standard or modified); assay type: biochemical; settings: HCV NS5B RdRp genotype 1b enzyme; standard or modified assay not stated
T1 construct: The protein was expressed with an 18 amino acid C-terminal truncation to enhance the solubility; made in house; host or cells: E. coli BL21(DE3), pET21a
T1 sequence (Q9WMX2 2420-2992): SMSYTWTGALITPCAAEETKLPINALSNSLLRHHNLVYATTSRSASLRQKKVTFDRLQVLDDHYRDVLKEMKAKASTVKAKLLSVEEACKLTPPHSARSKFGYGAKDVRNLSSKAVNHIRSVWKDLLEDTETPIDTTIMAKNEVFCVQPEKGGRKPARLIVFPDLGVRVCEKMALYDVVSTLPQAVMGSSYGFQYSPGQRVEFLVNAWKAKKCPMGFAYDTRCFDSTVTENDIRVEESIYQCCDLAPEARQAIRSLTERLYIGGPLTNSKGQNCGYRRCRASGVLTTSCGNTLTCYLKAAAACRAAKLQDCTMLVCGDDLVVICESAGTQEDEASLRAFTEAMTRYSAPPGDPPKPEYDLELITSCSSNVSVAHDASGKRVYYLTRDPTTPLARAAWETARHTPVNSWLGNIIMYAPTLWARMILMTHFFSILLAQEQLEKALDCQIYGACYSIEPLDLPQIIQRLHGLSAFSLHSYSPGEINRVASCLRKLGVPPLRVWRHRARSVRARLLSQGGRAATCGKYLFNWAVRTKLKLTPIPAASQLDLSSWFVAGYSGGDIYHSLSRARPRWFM
Description: HCV NS5B RdRp cloning, expression, and purification. The cDNA encoding the NS5B protein of HCV, genotype 1b, was cloned into the pET21a expression vector. The protein was expressed with an 18 amino acid C-terminal truncation to enhance the solubility. The E. coli competent cell line BL21(DE3) was used for expression of the protein. Cultures were grown at 37° C. for ˜4 hours until the cultures reached an optical density of 2.0 at 600 nm. The cultures were cooled to 20° C. and induced with 1 mM IPTG. Fresh ampicillin was added to a final concentration of 50 μg/ml and the cells were grown overnight at 20° C.
Cell pellets (3 L) were lysed for purification to yield 15-24 mgs of purified NS5B. The lysis buffer consisted of 20 mM Tris-HCl, pH 7.4, 500 mM NaCl, 0.5% triton X-100, 1 mM DTT, 1 mM EDTA, 20% glycerol, 0.5 mg/ml lysozyme, 10 mM MgCl2, 15 ug/ml deoxyribonuclease I, and Complete TM protease inhibitor tablets (Roche). After addition of the lysis buffer, frozen cell pellets were resuspended using a tissue homogenizer. To reduce the viscosity of the sample, aliquots of the lysate were sonicated on ice using a microtip attached to a Branson sonicator. The sonicated lysate was centrifuged at 100,000×g for 1 hr at 4° C. and filtered through a 0.2 μm filter unit (Corning).
The protein was purified using two sequential chromatography steps: Heparin sepharose CL-6B and polyU sepharose 4B (Pharmacia). The chromatography buffers were identical to the lysis buffer but contained no lysozyme, deoxyribonuclease I, MgCl2 or protease inhibitor and the NaCl concentration of the buffer was adjusted according to the requirements for charging the protein onto the column. Each column was eluted with a NaCl gradient which varied in length from 5-50 column volumes depending on the column type. After the final chromatography step, the resulting purity of the enzyme is >90% based on SDS-PAGE analysis. The enzyme was aliquoted and stored at −80° C.
Standard HCV NS5B RdRp enzyme assay. HCV RdRp genotype 1b assays were run in a final volume of 60 μl in 96 well plates (Corning 3600). The assay buffer is composed of 20 mM Hepes, pH 7.5, 2.5 mM KCl, 2.5 mM MgCl2, 1 mM DTT, 1.6 U RNAse inhibitor (Promega N2515), 0.01 mg/ml BSA (Sigma B6917), and 2% glycerol. All compounds were serially diluted (3-fold) in DMSO and diluted further in water such that the final concentration of DMSO in the assay was 2%. HCV RdRp genotype 1b enzyme was used at a final concentration of 28 nM. A polyA template was used at 6 nM, and a biotinylated oligo-dT12 primer was used at 180 nM final concentration. Template was obtained commercially (Amersham 27-4110). Biotinylated primer was prepared by Sigma Genosys. 3H-UTP was used at 0.6 μCi (0.29 μM total UTP). Reactions were initiated by the addition of enzyme, incubated at 30° C. for 60 min, and stopped by adding 25 μl of 50 mM EDTA containing SPA beads (4 μg/μl, Amersham RPNQ 0007). Plates were read on a Packard Top Count NXT after >1 hr incubation at room temperature.
Modified HCV NS5B RdRp enzyme assay. A modified enzyme assay was performed essentially as described for the standard enzyme assay except for the following: The biotinylated oligo dT12 primer was precaptured on streptavidin-coated SPA beads by mixing primer and beads in assay buffer and incubating at room temperature for one hour. Unbound primer was removed after centrifugation. The primer-bound beads were resuspended in 20 mM Hepes buffer, pH 7.5 and used in the assay at final concentrations of 20 nM primer and 0.67 μg/μl beads. Order of addition in the assay: enzyme (1.75 nM) was added to diluted compound followed by the addition of a mixture of template (0.36 nM), 3H-UTP (0.6 μCi, 0.29 μM), and primer-bound beads, to initiate the reaction; concentrations given are final. Reactions were allowed to proceed for 4 hours at 30° C.
IC50 values for compounds were determined using seven different [I]. […]

| Structure (SMILES) | EC50 [1] [nM] | IC50 [2] [nM] |
| --- | --- | --- |
| COc1ccc2c(c1)C1CC1(C(=O)N1CCN3CCCC3C1)Cn1c-2c(C2CCCCC2)c2ccc(C(=O)NS(=O)(=O)N(C)C)cc21 (stereo not drawn) | 4.58 to 500 | 4.58 to 500 |
| COc1ccc2c(c1)C1CC1(C(=O)N1C[C@H]3CN(Cc4ccccc4)C[C@H]3C1)Cn1c-2c(C2CCCCC2)c2ccc(C(=O)NS(=O)(=O)N(C)C)cc21 (stereo partly drawn) | 4.58 to 500 | 4.58 to 500 |
| COc1ccc2c(c1)C1CC1(C(=O)N1CCCC3CN(Cc4ccccc4)CC31)Cn1c-2c(C2CCCCC2)c2ccc(C(=O)NS(=O)(=O)N(C)C)cc21 (stereo not drawn) | 4.58 to 500 | 4.58 to 500 |
| COc1ccc2c(c1)C1CC1(C(=O)N1C[C@@H]3CCCN3C[C@@H]1CC(C)C)Cn1c-2c(C2CCCCC2)c2ccc(C(=O)NS(=O)(=O)N(C)C)cc21 (stereo partly drawn) | 4.58 to 500 | 4.58 to 500 |
| COc1ccc2c(c1)C1CC1(C(=O)N1C[C@@H]3CCCN3C[C@@H]1Cc1ccccc1)Cn1c-2c(C2CCCCC2)c2ccc(C(=O)NS(=O)(=O)N(C)C)cc21 (stereo partly drawn) | 4.58 to 500 | 4.58 to 500 |
| COc1ccc2c(c1)C1CC1(C(=O)N1CCN3CCCC3C1C)Cn1c-2c(C2CCCCC2)c2ccc(C(=O)NS(=O)(=O)N(C)C)cc21 (stereo not drawn) | 4.58 to 500 | 4.58 to 500 |
| COc1ccc2c(c1)C1CC1(C(=O)N1CCN3CCCC3C1)Cn1c-2c(C2CCCCC2)c2ccc(C(=O)NS(=O)(=O)C3CC3)cc21 (stereo not drawn) | 4.58 to 500 | 4.58 to 500 |
| COc1ccc2c(c1)C1CC1(C(=O)N1CCC[C@H]3CNC[C@H]31)Cn1c-2c(C2CCCCC2)c2ccc(C(=O)NS(=O)(=O)N(C)C)cc21 (stereo partly drawn) | 4.58 to 500 | 4.58 to 500 |
| COc1ccc2c(c1)C1CC1(C(=O)N1C[C@H]3CNC[C@H]3C1)Cn1c-2c(C2CCCCC2)c2ccc(C(=O)NS(=O)(=O)N(C)C)cc21 (stereo partly drawn) | 4.58 to 500 | 4.58 to 500 |
| COc1ccc2c(c1)C1CC1(C(=O)N1CC3CCCNC3C1)Cn1c-2c(C2CCCCC2)c2ccc(C(=O)NS(=O)(=O)N(C)C)cc21 (stereo not drawn) | 4.58 to 500 | 4.58 to 500 |
| CCS(=O)(=O)NC(=O)c1ccc2c(C3CCCCC3)c3n(c2c1)CC1(C(=O)N2CCN4CCCC4C2)CC1c1cc(OC)ccc1-3 (stereo not drawn) | 4.58 to 500 | 4.58 to 500 |
| CNC(=O)N1CCCC2CN(C(=O)C34CC3c3cc(OC)ccc3-c3c(C5CCCCC5)c5ccc(C(=O)NS(=O)(=O)N(C)C)cc5n3C4)CC21 (stereo not drawn) | 4.58 to 500 | 4.58 to 500 |
| COc1ccc2c(c1)C1CC1(C(=O)N1CC3CCCN(C)C3C1)Cn1c-2c(C2CCCCC2)c2ccc(C(=O)NS(=O)(=O)N(C)C)cc21 (stereo not drawn) | 4.58 to 500 | 4.58 to 500 |
| COc1ccc2c(c1)C1CC1(C(=O)N1CC3CN(Cc4ccccc4)CC3C1)Cn1c-2c(C2CCCCC2)c2ccc(C(=O)NS(N)(=O)=O)cc21 (stereo not drawn) | 4.58 to 500 | 4.58 to 500 |
| COc1ccc2c(c1)C1CC1(C(=O)N1CC3CNCC3C1)Cn1c-2c(C2CCCCC2)c2ccc(C(=O)NS(N)(=O)=O)cc21 (stereo not drawn) | > 500 | 4.58 to 500 |
| COc1ccc2c(c1)C1CC1(C(=O)N1CC3CN(C)CC3C1)Cn1c-2c(C2CCCCC2)c2ccc(C(=O)NS(=O)(=O)N(C)C)cc21 (stereo not drawn) | 4.58 to 500 | 4.58 to 500 |
| COc1ccc2c(c1)C1CC1(C(=O)N1CC3CN(C(=O)N4CCCC4)CC3C1)Cn1c-2c(C2CCCCC2)c2ccc(C(=O)NS(=O)(=O)N(C)C)cc21 (stereo not drawn) | 4.58 to 500 | 4.58 to 500 |
| COc1ccc2c(c1)C1CC1(C(=O)N1CCC[C@H]3CN(C)C[C@H]31)Cn1c-2c(C2CCCCC2)c2ccc(C(=O)NS(=O)(=O)N(C)C)cc21 (stereo partly drawn) | 4.58 to 500 | 4.58 to 500 |
| COc1ccc2c(c1)C1CC1(C(=O)N1CC3CN(C(=O)C4CC4)CC3C1)Cn1c-2c(C2CCCCC2)c2ccc(C(=O)NS(N)(=O)=O)cc21 (stereo not drawn) |  | 4.58 to 500 |
| COc1ccc2c(c1)C1CC1(C(=O)N1CC3CN(C(=O)N(C)C)CC3C1)Cn1c-2c(C2CCCCC2)c2ccc(C(=O)NS(N)(=O)=O)cc21 (stereo not drawn) |  | 4.58 to 500 |
| COc1ccc2c(c1)C1CC1(C(=O)N1CC3CN(C(=O)OC(C)(C)C)CC3C1)Cn1c-2c(C2CCCCC2)c2ccc(C(=O)NS(=O)(=O)C3CC3)cc21 (stereo not drawn) |  | 4.58 to 500 |
| COc1ccc2c(c1)C1CC1(C(=O)N1CCN3CCCCC3C1)Cn1c-2c(C2CCCCC2)c2ccc(C(=O)NS(=O)(=O)N(C)C)cc21 (stereo not drawn) | 4.58 to 500 | 4.58 to 500 |
| COc1ccc2c(c1)C1CC1(C(=O)N1CCN3CCCCC3C1)Cn1c-2c(C2CCCCC2)c2ccc(C(=O)NS(C)(=O)=O)cc21 (stereo not drawn) | 4.58 to 500 | 4.58 to 500 |
| COc1ccc2c(c1)C1CC1(C(=O)N1CCC[C@H]3CN(C(C)=O)C[C@H]31)Cn1c-2c(C2CCCCC2)c2ccc(C(=O)NS(=O)(=O)N(C)C)cc21 (stereo partly drawn) | 4.58 to 500 | 4.58 to 500 |
